Data from the supplement of paper PMC10307832.

Experiments:
Test in all cases: relative viability (nuclei count vs DMSO), 5 days (fraction); higher = more cells survive
[1] = compound: N#CC[C@H](C1CCCC1)n1cc(-c2ncnc3[nH]ccc23)cn1 [Ruxolitinib] + CC(=O)c1c(C)c2cnc(Nc3ccc(N4CCNCC4)cn3)nc2n(C2CCCC2)c1=O [Palbociclib] (partner 0.5 µM)
Summary of the method: (§1)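 Lung cancer cell lines in 1536-well plates were dosed by pin tool the day after seeding, either with one drug alone or with a fixed anchor-drug dose plus five library-drug doses (not always all listed) in √10 steps. After 5 days, cells were fixed and their nuclei stained in one step (final 0.05% Triton X-100, 1% formaldehyde, 1 ug/ml Hoechst), then counted on 4× images. Relative viability is the nuclei count in treated wells divided by that in vehicle wells. Values are medians of duplicate plates.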

Ruxolitinib + Crizotinib = compound: N#CC[C@H](C1CCCC1)n1cc(-c2ncnc3[nH]ccc23)cn1 [Ruxolitinib] + C[C@@H](Oc1cc(-c2cnn(C3CCNCC3)c2)cnc1N)c1c(Cl)ccc(F)c1Cl [Crizotinib] (partner 1 µM)
Summary of the method: as §1

VE-821 + Lapatinib = compound: CS(=O)(=O)c1ccc(-c2cnc(N)c(C(=O)Nc3ccccc3)n2)cc1 [VE-821] + CS(=O)(=O)CCNCc1ccc(-c2ccc3ncnc(Nc4ccc(OCc5cccc(F)c5)c(Cl)c4)c3c2)o1 [Lapatinib] (partner 2 µM)
Summary of the method: as §1

Ruxolitinib + Trametinib = compound: N#CC[C@H](C1CCCC1)n1cc(-c2ncnc3[nH]ccc23)cn1 [Ruxolitinib] + CC(=O)Nc1cccc(-n2c(=O)n(C3CC3)c(=O)c3c(Nc4ccc(I)cc4F)n(C)c(=O)c(C)c32)c1 [Trametinib] (partner 0.02 µM)
Summary of the method: as §1

Cell Line	relative viability ([1]; first compound 0.08 µM)	relative viability ([1]; first compound 0.253 µM)	relative viability ([1]; first compound 0.8 µM)	relative viability ([1]; first compound 2.53 µM)	relative viability ([1]; first compound 8 µM)	relative viability (Ruxolitinib + Crizotinib; first compound 0.08 µM)	relative viability (Ruxolitinib + Crizotinib; first compound 0.253 µM)	relative viability (Ruxolitinib + Crizotinib; first compound 0.8 µM)	relative viability (Ruxolitinib + Crizotinib; first compound 2.53 µM)	relative viability (Ruxolitinib + Crizotinib; first compound 8 µM)	relative viability (VE-821 + Lapatinib; first compound 0.08 µM)	relative viability (VE-821 + Lapatinib; first compound 0.253 µM)	relative viability (VE-821 + Lapatinib; first compound 0.8 µM)	relative viability (VE-821 + Lapatinib; first compound 2.53 µM)	relative viability (VE-821 + Lapatinib; first compound 8 µM)	relative viability (Ruxolitinib + Trametinib; first compound 0.08 µM)	relative viability (Ruxolitinib + Trametinib; first compound 0.253 µM)	relative viability (Ruxolitinib + Trametinib; first compound 0.8 µM)	relative viability (Ruxolitinib + Trametinib; first compound 2.53 µM)	relative viability (Ruxolitinib + Trametinib; first compound 8 µM)
NCI-H460	0.173	0.159	0.165	0.0961	0.155	0.985	1.02	1.01	0.803	0.447	1.33	0.996	0.82	0.729	0.398	0.195	0.161	0.151	0.0402	0.134
SW 900	0.477	0.589	0.625	0.624	0.532	–	–	–	–	–	–	–	–	–	–	0.597	0.742	1.09	0.614	0.902
NCI-H1703	–	–	–	–	–	0.643	0.611	0.832	0.497	0.241	1.21	1	1.06	0.547	0.328	–	–	–	–	–
NCI-H1395	0.596	0.555	0.674	0.636	0.572	–	–	–	–	–	0.902	1.15	0.903	0.987	0.768	1.04	0.95	1.15	0.981	0.965
NCI-H1793	0.291	0.287	0.307	0.319	0.335	–	–	–	–	–	0.868	0.735	0.642	1.31	0.815	0.406	0.42	0.466	0.338	0.364
ChaGo-K-1	0.909	0.924	0.906	0.8	0.789	–	1.13	1.22	0.963	0.997	–	–	–	–	–	0.885	0.887	0.828	0.803	0.765
EBC-1	–	–	–	–	–	0.191	–	0.21	0.204	0.202	0.241	0.195	0.209	0.216	0.265	–	–	–	–	–
NCI-H2342	0.53	0.496	0.49	0.543	0.541	–	–	–	–	–	–	–	–	–	–	0.762	0.872	0.808	0.807	0.816
NCI-H1299	–	–	–	–	–	0.981	0.909	0.973	0.839	0.704	0.948	0.885	0.915	0.913	0.771	–	–	–	–	–
Calu-6	–	–	–	–	–	0.797	0.676	1	0.711	0.399	1.21	1.05	1.1	0.89	0.551	–	–	–	–	–
IA-LM	–	–	–	–	–	0.886	1.05	0.791	0.849	0.638	1.03	0.744	0.821	0.83	0.501	–	–	–	–	–
NCI-H1648	0.294	0.302	0.344	0.345	0.371	–	–	–	–	–	–	–	–	–	–	0.548	0.517	0.62	0.416	0.74
NCI-H522	1.12	1.09	1.16	0.869	0.933	–	–	–	–	–	–	–	–	–	–	0.729	0.767	0.964	0.678	0.708
A549	–	–	–	–	–	0.782	0.891	0.855	0.692	0.293	1.14	0.849	0.929	0.829	0.475	–	–	–	–	–
